Measured values published in PubChem BioAssay AID1996.
≈ marks a conversion by molar mass, not a printed value.

Settings: buffer; pH 7.4; 200.0 µM

First: CC1=C(C(=O)c2ccccc2)C(c2ccc(O)cc2)NC(=S)N1 (configuration not stated)
Second: O=C(O)/C(=N/NC(=O)c1ccc(Cl)cc1)c1ccccc1
The solubility kinetic of the first is lower: 21.8 µg/mL (≈ 67.2 µM) for the first, over 45.4 µg/mL for the second.

Compared with Cc1ccc(NC(=O)CN(C)C(=O)/C=C/c2cccc(F)c2)cc1, CCOC(=O)c1ccc(NC(=O)c2cccnc2)cc1 is higher in solubility kinetic: 2.2 µg/mL (≈ 6.74 µM) for the first, over 40.5 µg/mL for the second.

Going from Cc1cc(Cl)ccc1NC(=O)CCN1C(=O)NC(C)(C)C1=O to CC(=O)c1ccccc1NC(=O)COC(=O)c1cc(C)oc1C, the solubility kinetic falls from over 48.6 µg/mL to 2.2 µg/mL (≈ 6.98 µM).

COc1ccc(N2CCN(C(=O)c3cc(C)oc3C)CC2)cc1 and COc1ccc(C(=O)N2CCC3(CC2)OCCO3)cc1 cannot be ordered by solubility kinetic: 42.2 µg/mL (≈ 134 µM) for the first, over 41.6 µg/mL for the second.

Compared with Cc1cc([N+](=O)[O-])c2c(c1C)C1C=CCC1C(c1ccccn1)N2 (configuration not stated), Cc1cccc(NC(=S)N2CCCN(c3ncccc3[N+](=O)[O-])CC2)c1 is 4.2-fold higher in solubility kinetic: 9.3 µg/mL (≈ 28.9 µM) for the first, 39.4 µg/mL (≈ 106 µM) for the second.

Compared with Cc1ccnc(NC(=O)Cc2c(F)cccc2Cl)c1, O=C(Cc1ccc([N+](=O)[O-])cc1)OCc1c(F)cccc1Cl is lower in solubility kinetic: over 41.8 µg/mL for the first, under 0.7 µg/mL for the second.

Cc1cc(OCC(=O)N2CCC(C(=O)O)CC2)c2c(C)cc(=O)oc2c1 and Cc1ccc(/C=C(\C#N)C(=O)N2CCCC2)c(C)c1 cannot be ordered by solubility kinetic: over 53.9 µg/mL for the first, over 38.1 µg/mL for the second.

First: O=C(Nc1cccnc1)c1ccc(N2CCOCC2)c([N+](=O)[O-])c1
Second: CCc1ccc(C(=O)Nc2cc(S(=O)(=O)N3CCOCC3)ccc2N2CCOCC2)cc1
The solubility kinetic of the first is 16-fold higher: 41.2 µg/mL (≈ 125 µM) for the first, 2.5 µg/mL (≈ 5.44 µM) for the second.

CC(C)(C)Nc1nc(-c2ccccn2)nc2ccccc12 and Cc1ccccc1NC(=O)CSc1nnc(-c2ccccn2)o1 cannot be ordered by solubility kinetic: over 41.8 µg/mL for the first, over 49 µg/mL for the second.

COC(=O)C1CN(C(=O)C(C)Oc2ccccc2F)c2ccccc2O1 (configuration not stated) and CC1C(=O)Nc2ccccc2N1C(=O)c1c(F)cccc1F (configuration not stated) cannot be ordered by solubility kinetic: over 53.9 µg/mL for the first, over 45.3 µg/mL for the second.

Going from COc1ccccc1-c1cc(-c2ccccc2)nc(=O)[nH]1 to CCn1c(SCc2nc3ccccc3c(=O)[nH]2)nc2ccccc21, the solubility kinetic falls from over 41.7 µg/mL to 1.1 µg/mL (≈ 3.27 µM).

CNC(=O)COC(=O)c1ccccc1NC(=O)c1ccco1 and O=C(CCNC(=O)c1ccccc1Cl)NCc1cccnc1 cannot be ordered by solubility kinetic: over 45.3 µg/mL for the first, over 47.7 µg/mL for the second.

First: O=[N+]([O-])c1ccc(CN2CCN(c3ccc(Cl)cc3)CC2)o1
Second: CCCN1CCN(C(=O)CCCNC(=O)c2ccc(Cl)cc2)CC1
The solubility kinetic of the first is lower: 4.7 µg/mL (≈ 14.6 µM) for the first, over 52.8 µg/mL for the second.

Cc1cccc(C(=O)OC(C)CN2CCN(C)CC2)c1.Cl (configuration not stated) and CCN1CCN(c2nc(NCCO)c3ccccc3n2)CC1.Cl cannot be ordered by solubility kinetic: over 46.9 µg/mL for the first, 48 µg/mL for the second.

First: O=C(Nc1ccccc1)Nc1ccc(NC(=O)c2ccccc2O)cc1
Second: CN(CC(=O)Nc1ccccc1Cl)CC(=O)Nc1cccc2ccccc12
The solubility kinetic of the first is lower: under 0.2 µg/mL for the first, 45.3 µg/mL (≈ 119 µM) for the second.

Compared with CC(=O)c1sc(Nc2nc3cc4c(cc3s2)OCO4)nc1C, O=C(Nc1ccc2c(c1)OCO2)c1cc(Cl)ccn1 is 10-fold higher in solubility kinetic: 0.6 µg/mL (≈ 1.8 µM) for the first, 6.1 µg/mL (≈ 22 µM) for the second.

First: Cn1c(-c2nonc2N)nc2ccccc21
Second: Cc1ccc(NCc2nc3ccccc3n2C)cc1C
The solubility kinetic of the first is 5.1-fold lower: 4.3 µg/mL (≈ 20 µM) for the first, 22.1 µg/mL (≈ 83.3 µM) for the second.

Cc1cc(C)c(S(=O)(=O)NCc2cccnc2)cc1C and Cc1cc(O)c(C2(O)C(=O)Nc3ccccc32)cc1C (configuration not stated) cannot be ordered by solubility kinetic: over 43.6 µg/mL for the first, over 40.4 µg/mL for the second.

Compared with COc1cc([N+](=O)[O-])ccc1NC(=O)COC(=O)C=C(C)C, COc1ccc(NC(=O)/C(C#N)=C/c2ccc[nH]2)c(OC)c1 is 12-fold lower in solubility kinetic: 3.6 µg/mL (≈ 11.7 µM) for the first, 0.3 µg/mL (≈ 1.01 µM) for the second.

Going from Cc1ccc(C(=O)Nc2cccc3ccccc23)cc1 to Cc1ccc(COC(=O)c2ccc3ccccc3n2)cc1, the solubility kinetic rises from 0.8 µg/mL (≈ 3.06 µM) to 7.6 µg/mL (≈ 27.4 µM) (9.5-fold).

Going from COc1ccc(CCNC(=O)Nc2ccc(F)cc2F)cc1OC to COc1ccc(C(=O)n2c(N)nc3ccccc32)cc1OC.Cl, the solubility kinetic rises from 1.6 µg/mL (≈ 4.76 µM) to 10.9 µg/mL (6.8-fold).

COCCCNC(=S)N1CCC(NC(=O)c2ccco2)CC1 and Cc1cccc(C)c1OCC(=O)NC1CC1 cannot be ordered by solubility kinetic: over 48.8 µg/mL for the first, over 32.9 µg/mL for the second.

Going from Cc1ccc2c(c1)c1c3n2CCNC3CCC1.Cl (configuration not stated) to CC1CCN(S(=O)(=O)c2ccc3[nH]c(=O)[nH]c3c2)CC1, the solubility kinetic falls from over 39.4 µg/mL to 3.2 µg/mL (≈ 10.8 µM).

Cc1ccc(C)c(NC(=O)C(=O)NCCc2c[nH]c3ccccc23)c1 and Cc1ccccc1NC(=O)Nc1ccc2c(c1)CCC2 are within 1.5-fold of each other in solubility kinetic: 0.7 µg/mL (≈ 2.09 µM) for the first, 0.5 µg/mL (≈ 1.88 µM) for the second.

CCOC(=O)C1(Cc2ccccc2)CCCN(C(=O)C=C(C)C)C1 (configuration not stated) and Cc1ccc(C(OCC(O)CN2CCCCC2)c2ccccc2)cc1 (configuration not stated) are within 1.5-fold of each other in solubility kinetic: 46.8 µg/mL (≈ 142 µM) for the first, 40.2 µg/mL (≈ 118 µM) for the second.

COc1ccc(C(=O)OCC(=O)c2ccc[nH]2)c(OC)c1 and COc1ccc2nc(/N=C/c3cccc(OC)c3O)sc2c1 cannot be ordered by solubility kinetic: over 43.4 µg/mL for the first, over 47.2 µg/mL for the second.

Going from CCC1(c2ccc(F)cc2)NC(=O)NC1=O (configuration not stated) to O=C(CC1NC(=S)NC1=O)c1ccc(Cl)cc1 (configuration not stated), the solubility kinetic falls from 28.5 µg/mL (≈ 128 µM) to 3.2 µg/mL (≈ 11.9 µM) (8.9-fold).

CC(NC(=O)CSc1ncccn1)c1ccc2c(c1)OCO2 (configuration not stated) and O=C(NCCc1ccc2c(c1)OCCO2)c1ccccn1 cannot be ordered by solubility kinetic: over 47.6 µg/mL for the first, over 42.6 µg/mL for the second.

Nc1ccccc1S(=O)(=O)NCCCCc1ccccc1 and O=S(=O)(Cc1ccccc1)NCCc1ccc(F)cc1 are within 1.5-fold of each other in solubility kinetic: 28.7 µg/mL (≈ 94.3 µM) for the first, 34.3 µg/mL (≈ 117 µM) for the second.

Going from CC1(C)C2([N+](=O)[O-])CN3CC1([N+](=O)[O-])CN(C2)C3c1ccc(O)c(O)c1 (configuration not stated) to O=C(Cc1ccc([N+](=O)[O-])cc1)NCC1CCCO1 (configuration not stated), the solubility kinetic rises from 3.5 µg/mL (≈ 9.61 µM) to over 39.6 µg/mL.

Going from COC(=O)Nc1nncs1 to COc1ccccc1OCC(=O)Nc1nc2c(s1)CCCC2, the solubility kinetic falls from over 23.9 µg/mL to 8 µg/mL (≈ 25.1 µM).

Going from O=C(NCc1ccccc1Cl)c1ccncc1 to O=S(=O)(Nc1ccncc1)c1cc(Cl)c(Cl)cc1Cl, the solubility kinetic falls from over 37 µg/mL to 1.6 µg/mL (≈ 4.74 µM).

First: CCN1CCN(c2oc(/C=C/c3ccccc3)nc2C#N)CC1
Second: CC(=O)Nc1ccc(S(=O)(=O)Nc2nc3ccccc3nc2N2CCOCC2)cc1
The solubility kinetic of the first is lower: 42.4 µg/mL (≈ 137 µM) for the first, over 64.1 µg/mL for the second.

Compared with COC(=O)c1ccc(NC(=O)c2ccc3nc(C)sc3c2)cc1, Cc1cccc(C)c1NC(=O)COC(=O)c1cc[n+]([O-])cc1 is higher in solubility kinetic: under 0.3 µg/mL for the first, over 45 µg/mL for the second.

O=C1CS/C(=C/C(=O)c2cccc(Cl)c2)N1 and Cc1ccc(SC(C)C(=O)NC(N)=O)c(C)c1 (configuration not stated) are within 1.5-fold of each other in solubility kinetic: 10.5 µg/mL (≈ 41.4 µM) for the first, 7.7 µg/mL (≈ 30.5 µM) for the second.

COc1ccc(OCC(=O)NC2CCSc3ccccc32)cc1 (configuration not stated) and Cn1c(COc2ccc(F)cc2)nc2ccccc21 are within 1.5-fold of each other in solubility kinetic: 38.6 µg/mL (≈ 117 µM) for the first, 36.3 µg/mL (≈ 142 µM) for the second.

CCCc1ccc(OCC(O)CN2CCCC2)cc1.Cl (configuration not stated) and N#Cc1ccc(OC(=O)Cc2ccsc2)cc1 are within 1.5-fold of each other in solubility kinetic: 37.2 µg/mL for the first, 35.5 µg/mL (≈ 146 µM) for the second.

C=CCNC(=S)N(Cc1ccccc1)Cc1ccc(F)cc1 and Cc1ccc(CN(C)C(=O)c2ccccc2Sc2ccccc2C#N)cc1 are within 1.5-fold of each other in solubility kinetic: 14 µg/mL (≈ 44.5 µM) for the first, 14.7 µg/mL (≈ 39.5 µM) for the second.

First: Cc1ncc2c(n1)-c1cc(F)ccc1SC2
Second: Cc1c(C(=O)Nc2cccnc2)oc2ccc(Br)cc12
The solubility kinetic of the first is higher: 28.9 µg/mL (≈ 124 µM) for the first, under 0.4 µg/mL for the second.

Cc1cc(C)c(NC(=O)C2CCCO2)c(C)c1NC(=O)C1CCCO1 (configuration not stated) and O=C(CCN1N=C(c2ccccc2)CCC1=O)NC1CCCC1 cannot be ordered by solubility kinetic: over 52 µg/mL for the first, over 47 µg/mL for the second.

O=S(=O)(NCC1CCCO1)c1ccc(Cl)nc1 (configuration not stated) and CC1CN(S(=O)(=O)c2ccc(C(=O)Nc3ccccc3F)cc2)CC(C)O1 (configuration not stated) cannot be ordered by solubility kinetic: over 41.5 µg/mL for the first, over 58.9 µg/mL for the second.

Compared with Cc1ccc(NC(=O)c2cnccn2)nc1, CSc1ccccc1C(=O)N(C)C(c1ccccc1)c1ccccc1 is lower in solubility kinetic: over 32.1 µg/mL for the first, 10.6 µg/mL (≈ 30.5 µM) for the second.

First: CCc1ccccc1NC(=O)COC(=O)C1C2CC3OC(=O)C1C3C2 (configuration not stated)
Second: Cn1cccc/c1=N\c1cccc[n+]1C.[I-]
The solubility kinetic of the first is lower: 46.2 µg/mL (≈ 135 µM) for the first, over 49.1 µg/mL for the second.

In the case of CN(C)S(=O)(=O)c1ccc(NC=C(C#N)C#N)cc1, the solubility kinetic is reported as 26.3 µg/mL (≈ 95.2 µM).
